The target of the assay is T1, P. falciparum diadenosine tetraphosphate (Ap4A) hydrolase (PfAp4AH) (Plasmodium falciparum, UniProt C0H4F3).
T1 construct: gene PF3D7_0520600; Full length PfAp4AH, recombinant from E. coli, His-tag removed
T1 sequence (C0H4F3 1-152): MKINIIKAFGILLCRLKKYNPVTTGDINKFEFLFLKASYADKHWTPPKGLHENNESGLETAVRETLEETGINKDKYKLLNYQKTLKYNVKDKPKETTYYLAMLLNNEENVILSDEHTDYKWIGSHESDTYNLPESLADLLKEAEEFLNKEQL
Description: ITC at […] °C (n = […]); also enzyme inhibition IC50 […] and thermal shift (negative ΔTm). Type of assay: binding.

Each structure is given as a SMILES string.

By Kd is commonly meant the constant that tells how readily two partners part at equilibrium. Consider `Cc1ccc(C(=O)Nc2ccc(S(=O)(=O)O)c3cc(S(=O)(=O)O)cc(S(=O)(=O)O)c23)cc1NC(=O)c1cccc(NC(=O)Nc2cccc(C(=O)Nc3cc(C(=O)Nc4ccc(S(=O)(=O)O)c5cc(S(=O)(=O)O)cc(S(=O)(=O)O)c45)ccc3C)c2)c1` [suramin], for which the Kd came out at 18.1 ± 1.1 µM.

Values taken from publication PMC4734340, “Structural and functional attributes of malaria parasite diadenosine tetraphosphate hydrolase” (Scientific Reports, 2016).
